Assay results: patent publication US8067044B2, “Cosmetic compositions containing an extract of leaves of the Castanea sativa plant and cosmetic treatments” (Cognis France S.A.S., priority 2004, dated 2011)

Legend:
[1] = tested on: strains of Gram-positive and Gram-negative bacteria; conditions: same bacterial strains; cited from earlier work
[2] = tested on: Raphanus sativus seed germination; conditions: cited from earlier work
[3] = Anti-HO test with deoxyribose (Fenton's reaction), reaction without EDTA
From the text: (§1) 1.2 Methods and principle of this experiment: The anti-free radical (anti-FR) activity has been evaluated by chemical tests for the evaluation of the potential to scavenge free radicals R (DPPH test) and hydroxyl radicals HO. The anti-FR activity has been evaluated also by biochemical tests to address the potential for scavenging of a kind of reactive oxygen species (ROS), the so called super oxide anion (O2). The O2 originates mainly from xanthine oxydase and lipoxygenase activities. Xanthine oxydase (XOD) is an enzyme activated during oxidative stress, this enzyme catalyses the O2 release along the degradation of hypoxanthin (HX) which has been overproduced by a disruption of energetic cell metabolism.
[…] The optical density at 532 nm corresponds to the level of oxidised deoxyribose. An anti-free radical substance reacts with these radicals HO— and reduces the formation of this pink compound.
(§2) The results are expressed in percent of inhibition of HO— radical against control. The aim of this test is to show an anti-free radical activity.

[4] = Anti-DPPH test (free radical scavenging); conditions: average of 2 assays
From the text: as §1, with “The O2 originates mainly from xanthine oxydase and lipoxygenase activities.” left out, “metabolism. […] Principle: DPPH (diphenylpicryl-hydrazyl) is a stable free radical which forms a purple solution. The purple solution of DPPH^o has a whitening effect due to components that act as radical-scavengers. […] The results are expressed in percent inhibition of DPPH radical against control. The aim of this test is to show an anti-free radical activity.” for “metabolism.”

[5] = Anti-HO test with deoxyribose (Fenton's reaction), reaction with EDTA
From the text: as §1
Principle: The hydroxyl radical HO— (formed by H2O2 in presence of Fe++ with EDTA) oxidises deoxyribose (a component of DNA), then a pink compound is formed by condensation of thiobarbituric acid with oxidised form of deoxyribose. The optical density at 532 nm corresponds to the level of oxidised deoxyribose. An anti-free radical substance reacts with these radicals HO— and reduces the formation of this pink compound.
as §2

Xanthine oxidase = Xanthine oxidase (Homo sapiens, UniProt P47989); assay: Inhibition test on xanthine oxidase (superoxide anion revealed by NBT); format: biochemical
Xanthine oxidase, sequence (P47989 whole entry, species assumed): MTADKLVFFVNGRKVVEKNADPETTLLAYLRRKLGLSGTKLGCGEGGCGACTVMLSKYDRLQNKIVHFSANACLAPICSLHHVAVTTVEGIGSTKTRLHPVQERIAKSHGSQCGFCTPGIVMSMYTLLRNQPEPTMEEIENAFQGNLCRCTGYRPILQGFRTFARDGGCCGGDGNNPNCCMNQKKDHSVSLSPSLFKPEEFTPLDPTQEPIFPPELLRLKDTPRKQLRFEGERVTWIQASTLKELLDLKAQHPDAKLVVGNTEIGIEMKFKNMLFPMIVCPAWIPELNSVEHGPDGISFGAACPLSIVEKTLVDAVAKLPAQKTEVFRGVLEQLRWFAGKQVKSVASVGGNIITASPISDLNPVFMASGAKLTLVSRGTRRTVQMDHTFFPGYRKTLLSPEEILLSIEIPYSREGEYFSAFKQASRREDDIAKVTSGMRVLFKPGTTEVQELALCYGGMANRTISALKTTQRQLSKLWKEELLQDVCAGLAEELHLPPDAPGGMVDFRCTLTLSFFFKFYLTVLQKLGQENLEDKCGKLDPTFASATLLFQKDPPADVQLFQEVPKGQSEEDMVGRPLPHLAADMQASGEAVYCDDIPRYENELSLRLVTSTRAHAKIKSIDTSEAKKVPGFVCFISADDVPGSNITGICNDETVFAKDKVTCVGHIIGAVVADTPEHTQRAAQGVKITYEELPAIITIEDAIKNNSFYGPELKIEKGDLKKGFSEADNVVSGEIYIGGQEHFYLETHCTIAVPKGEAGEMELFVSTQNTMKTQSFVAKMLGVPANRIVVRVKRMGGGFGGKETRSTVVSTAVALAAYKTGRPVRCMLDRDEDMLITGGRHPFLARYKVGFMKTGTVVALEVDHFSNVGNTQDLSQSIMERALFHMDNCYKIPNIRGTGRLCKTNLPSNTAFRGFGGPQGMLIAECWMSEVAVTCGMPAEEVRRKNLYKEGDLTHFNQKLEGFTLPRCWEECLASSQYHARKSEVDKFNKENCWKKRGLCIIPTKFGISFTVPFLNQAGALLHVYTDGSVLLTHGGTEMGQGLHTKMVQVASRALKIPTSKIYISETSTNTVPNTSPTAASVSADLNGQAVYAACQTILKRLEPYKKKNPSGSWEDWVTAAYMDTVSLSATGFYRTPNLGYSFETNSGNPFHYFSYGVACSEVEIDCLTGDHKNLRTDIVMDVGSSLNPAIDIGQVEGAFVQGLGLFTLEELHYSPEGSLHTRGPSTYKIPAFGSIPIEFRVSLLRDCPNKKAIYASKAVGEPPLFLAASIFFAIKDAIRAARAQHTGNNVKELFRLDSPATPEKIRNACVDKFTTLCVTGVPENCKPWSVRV
From the text: as §1
Xanthine oxydase is an enzyme induced during oxidative stress: it catabolises the puric bases (adenine, guanine) in uric acid and superoxide anions O2— dismutates spontaneously (or by the action of SOD=superoxyde dismutase) in H2O2 and O2.
A substance with an anti-free-radical-activity absorbs or destroys the O2— anion and thereby it reduces the optical density.
The results are expressed in percent of inhibition of O2— radical against control. The aim of this test is to show an anti-free radical activity.
As to the meaning of U/ml: for an enzyme, the dose is expressed in Units/ml for unity. In the other cases, it is not enzymes.

B16 melanocytes = assay: Inhibition of melanin synthesis on B16 melanocytes; format: cell-based; conditions: for Rate of cellular proteins / Rate of melanin: control = 100; for rate of released melanin (comment): treated B16 melanocytes
Procedure: Aim of the experiment: to evaluate the potential of compounds to lower the melanin synthesis; the compounds have been tested on cell culture of melanocytes called B16.
• Seeding of melanocytes in growth medium • Incubation for 3 days at 37° C., CO2=5% (atmosphere: 5% carbon dioxide in air) • Exchange of the growth medium by a medium with a range of concentration of ingredients to be tested • Incubation for 3 days at 37° C., CO2=5% (atmosphere: 5% carbon dioxide in air) • Recording of Cellular levels of protein by Bradford's method • Recording of melanin by a spectrophotometric method (OD at 475 nm)

human fibroblasts = assay: Inhibition of UVA effect on human fibroblasts (released MDA); format: cell-based
Procedure: Aim of the experiment: Determination of the potential of the tested ingredient to reduce negative effects of UV-A radiation on the survival rate of human fibroblasts.
• Seeding of human fibroblasts in a growth medium • Incubation for 3 days at 37° C., CO2=5% (atmosphere: 5% carbon dioxide in air) • Exchange of the growth medium by a medium with a range of concentration of ingredients to be tested • Incubation for 2 days at 37° C., CO2=5% • Exchange of the medium with ingredients by a balanced salt solution and UV-A irradiation (20 J/cm^2) • Recording of released MDA levels by spectro-fluorimetry. (MDA (malonaldialdehyde) is a product of oxidative degradation of lipids from cell membranes)

Lipoxygenase = assay: Inhibition test on lipoxygenase (superoxide anions, luminol); format: biochemical
From the text: as §1
Lipoxygenase was incubated with a specific substrate (unsaturated fatty acid) and the ingredient to be tested. Then the rate of released superoxide anions was evaluated by a luminescent probe (luminol). Caffeic acid was tested as reference ingredient.

## O=c1cc(-c2ccc(O)cc2)oc2cc(O)cc(O)c12 [apigenin]
[1]
  antibacterial activity among standards of the identified flavonoids: highest activity
[2]
  percentage of seed germination and root and epicotyl growth: decrease

## c1cnc2c(c1)ccc1cccnc12 [o-phenanthroline]
[3]; 0.02 % (w/v)
  % of inhibition of HO— radical/control: 42%
[3]; 0.06 % (w/v)
  % of inhibition of HO— radical/control: 71%

## O=C1O[C@H]([C@@H](O)CO)C(O)=C1O [Vitamin C, ascorbic acid]
[4]; 0.0003 % (w/v)
  % of inhibition of DPPH radical/control: 19%
[4]; 0.001 % (w/v)
  % of inhibition of DPPH radical/control: 58%
[4]; 0.003 % (w/v)
  % of inhibition of DPPH radical/control: 74%
[4]; 0.01 % (w/v)
  % of inhibition of DPPH radical/control: 68%

## O=c1c(O)c(-c2ccc(O)c(O)c2)oc2cc(O)cc(O)c12 [quercetin]
[1]
  antibacterial activity among standards of the identified flavonoids: highest activity
[2]
  percentage of seed germination and root and epicotyl growth: decrease

## OC[C@@H](O)[C@@H](O)[C@H](O)[C@H](O)CO [mannitol]
[5]; 0.06 % (w/v)
  % of inhibition of HO— radical/control: 25%
[5]; 0.6 % (w/v)
  % of inhibition of HO— radical/control: 68%

## SOD: superoxyde dismutase, enzyme used as reference, dosed in U/ml
Xanthine oxidase; 0.5 U/ml
  % of inhibition of O2— radical against control: 18%
Xanthine oxidase; 5 U/ml
  % of inhibition of O2— radical against control: 50%
Xanthine oxidase; 50 U/ml
  % of inhibition of O2— radical against control: 95%
Xanthine oxidase; enzyme reference, Units/ml
  IC50: 5 U/ml

## O=c1cc(CO)occ1O [kojic acid]
B16 melanocytes; dose 0.03 % w/v
  Rate of cellular proteins: 109 % against control
  Rate of melanin: 32 % against control
B16 melanocytes
  rate of released melanin (comment): strongly decreased

## OC[C@H]1O[C@@H](Oc2ccc(O)cc2)[C@H](O)[C@@H](O)[C@@H]1O [arbutin]
B16 melanocytes; dose 0.2 % w/v
  Rate of cellular proteins: 91 % against control
  Rate of melanin: 64 % against control
B16 melanocytes
  rate of released melanin (comment): strongly decreased

## Vitamin E
Human fibroblasts; UV-A irradiated human fibroblasts
  rate of released MDA from UV-A irradiated fibroblasts (comment): strongly decreased
Human fibroblasts; dose 0.0003 % w/v, UV-A 20 J/cm2 (irradiated control = 100)
  Rate of released MDA: 7 % against control

## O=C(O)/C=C/c1ccc(O)c(O)c1 [caffeic acid]
Lipoxygenase; 0.00002 % (w/v)
  % of inhibition (lipoxygenase, released superoxide anions): 18%
Lipoxygenase; 0.0002 % (w/v)
  % of inhibition (lipoxygenase, released superoxide anions): 53%
